This note sets out measurements from ChEMBL document CHEMBL2034861, “Tyrosyl-DNA phosphodiesterase 1 inhibitor from an anamorphic fungus” (J Nat Prod, 2012).

The test system of one series is NCI-H2052. Put plainly: Antiproliferative activity against human NCI-H2052 cells after 48 hrs by WST-8 assay. Type of series: functional, cell-based. Particulars: NCI-H2052, 48 h. On the technique in general: Formazan colour is commonly taken as a measure of viable cells.
The subject of series [1] is Mus musculus. As to the kind of experiment: Toxicity in nude mouse KSN assessed as adverse effects at 2 mg/kg, ip qd administered every other day for 19 days measured on day 21 relative to vehicle treated control. Type of series: organism-based. Details: dose 2 mg/kg, route intraperitoneal. Conditions: in vivo, 456 h.
The test system of series [2] is HT-29. Put plainly: Antiproliferative activity against human HT-29 cells after 48 hrs by WST-8 assay. Type of series: functional, cell-based. Conditions: HT-29, 48 h.
The nature of series [3]: Antiproliferative activity against human NAMALWA cells after 48 hrs by WST-8 assay. It counts as functional, cell-based. Conditions: NAMALVA.
In series [4] the target is Tyrosyl-DNA phosphodiesterase 1 (Homo sapiens, UniProt Q9NUW8). Put plainly: Inhibition of human Tdp1 using 3'-phosphate-(4-methylumbelliferone)-thymidine as substrate after 180 mins by spectrophotometry.
Tyrosyl-DNA phosphodiesterase 1, sequence (Q9NUW8 whole entry): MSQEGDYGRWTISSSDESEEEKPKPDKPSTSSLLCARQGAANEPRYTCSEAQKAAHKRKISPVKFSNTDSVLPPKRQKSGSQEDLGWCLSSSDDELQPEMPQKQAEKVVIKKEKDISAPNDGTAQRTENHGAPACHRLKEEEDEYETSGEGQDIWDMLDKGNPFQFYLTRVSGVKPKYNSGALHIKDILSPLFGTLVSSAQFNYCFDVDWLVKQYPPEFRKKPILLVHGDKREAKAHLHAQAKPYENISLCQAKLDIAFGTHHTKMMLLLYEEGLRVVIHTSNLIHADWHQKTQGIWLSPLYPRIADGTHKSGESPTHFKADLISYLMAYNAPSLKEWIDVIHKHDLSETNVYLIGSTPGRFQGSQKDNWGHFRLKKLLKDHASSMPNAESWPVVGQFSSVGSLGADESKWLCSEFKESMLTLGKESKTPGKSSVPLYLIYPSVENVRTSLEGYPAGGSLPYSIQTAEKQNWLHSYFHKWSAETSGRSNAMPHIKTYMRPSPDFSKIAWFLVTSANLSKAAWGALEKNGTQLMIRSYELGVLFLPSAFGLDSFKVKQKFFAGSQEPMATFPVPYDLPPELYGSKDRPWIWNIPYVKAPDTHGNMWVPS
The test system of a further series is HeLa. As to the kind of experiment: Antiproliferative activity against human HeLa cells after 48 hrs by WST-8 assay. It counts as functional, cell-based.
Series [5] relates to Mus musculus. Put plainly: Toxicity in nude mouse KSN assessed as weight loss at 2 mg/kg, ip qd administered every other day for 19 days measured on day 21 relative to vehicle treated control. Type of series: organism-based. Details: dose 2 mg/kg, route intraperitoneal. Conditions: in vivo, 456 h.
In series [6] the test system is HT-29. Put plainly: Antitumor activity against human HT-29 cells xenografted in nude mouse KSN assessed as reduction in tumor volume at 2 mg/kg, ip qd administered every other day from day 7 post-tumor injection for 19 days measured on day 21 relative to vehicle treated control. It counts as functional. Conditions: route intraperitoneal. A general note: In xenograft studies the graft and the host belong to different species.

As to `CCCCC(C)C1=CC(=O)C2=C(O[C@]3(C)CC[C@H]4O[C@@H]([C@@](C)(O)C(=O)O)CC[C@]4(C)[C@H]3C2)C1=O` (stereo partly drawn), the 50% inhibitory concentration (IC50) (in general, the point on the concentration scale where inhibition reaches its midpoint) came to 13 µM in the series on NCI-H2052; 4 µM in the series on HT-29 [2]; 3.5 µM in series [3]; 18 µM in series [4]; 9.2 µM in the series on HeLa. The Activity entry in the series on Mus musculus [1] and in the series on Mus musculus [5] was “Non-toxic” each time. Further, the T/C in the series with HT-29 [6] was 0.51.
